Data: patent US12559495B2 (Agency for Science, Technology and Research, priority 2013, dated 2026)
pIC50: −log10 of the molar value.

Tests used:
Type in all cases: cell-based
p-LRP6 (Ser1490) [1] = test: Phospho-LRP6 assay, dose titration, HPAF-II pancreatic adenocarcinoma cells
Method: FIGS. 4A-4B show pLRP6 in vitro inhibition-dose titration. FIG. 4A is a Western blot analysis of HPAF-II pancreatic adenocarcinoma cells treated with the indicated doses of Compound 5 for 6 h with antibodies as indicated on the left. The […] controls are a cell lysate of untreated STF3A cells and cells treated with vehicle only (DMSO). FIG. 4B is a densitometric analysis of pLRP6 relative to total LRP6.
While 2 μM led to 50-60% inhibition after 6 h of in vitro treatment, 3.3 nM of Compound 5 still inhibited p-LRP6 (Ser1490) by about 20% in this assay (FIG. 4).

HEK293-STF3A cells = test: STF3A assay (luciferase reporter); details: Homo sapiens, 24 h, 1 day of treatment
Summary of the method: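 HEK293 cells stably carrying the STF luciferase reporter and expressing Wnt3A, seeded at 2×10^4 cells/well and grown overnight. Serially diluted compound (final 50 μM to 1.5 nM) applied for 1 day at 37 °C. Steady-Glo luciferase luminescence read after 10 min at room temperature.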

p-LRP6 (Ser1490) [2] = test: Phospho-LRP6 assay, time course, PA-1 teratocarcinoma cells
Method: FIGS. 3A-3B show the time-course of p-LRP6 (Ser 1490) inhibition (in vitro) induced by porcupine inhibitors. FIG. 3A is a Western blot analysis of PA-1 teratocarcinoma cells treated with 2 μM of Compound 5, for the time points indicated with antibodies as indicated on the left. As a control, cells treated with either growth medium alone or the vehicle (DMSO) for 48 h were included. FIG. 3B is a densitometric analysis of pLRP6 relative to total LRP6.
The present target efficacy biomarker assay measures a decrease in levels of p-LRP6 (i.e. phosphorylated LRP-6) (Ser1490) upon treatment with a porcupine inhibitor (Compound 5). […] The inhibitory effect remains up to 72 h (data not shown) in the presence of the compound and up to 12 h after the compound has been removed (data not shown).

Compound	pIC50 (HEK293-STF3A cells)	other results
Cn1c(=O)c2c(ncn2CC(=O)Nc2ccc(-c3ccccc3)nn2)n(C)c1=O [Compound 5, 2-(1,3-dimethyl-2,6-dioxo-1,2,3,6-tetrahydro-7H-purin-7-yl)-N-(6-phenylpyridazin-3-yl)acetamide]	> 7.00	inhibition at 0.0033 µM (p-LRP6 (Ser1490) [1]; Homo sapiens, HPAF-II, 3.3 nM, 6 h (FIG. 4)): ~20%; inhibition at 2 µM (p-LRP6 (Ser1490) [1]; Homo sapiens, HPAF-II, 2 μM, after 6 h of in vitro treatment (FIG. 4)): 50 to 60%; inhibition of p-LRP6 (p-LRP6 (Ser1490) [1]; concentrations lower than 3.3 nM, HPAF-II cells (data not shown)): did not inhibit; reduction in p-LRP6 (p-LRP6 (Ser1490) [2]; 2 μM, from 4 h onwards, in vitro (FIG. 3)): greater than 50%; duration of inhibitory effect after the compound has been removed (p-LRP6 (Ser1490) [2]; data not shown): up to 12 h; duration of inhibitory effect in the presence of the compound (p-LRP6 (Ser1490) [2]; data not shown): up to 72 h
Cc1nc(-c2ccc(NC(=O)[C@@H](C)n3cnc4c3c(=O)n(C)c(=O)n4C)nc2)cs1 [Compound 85, (R)-2-(1,3-dimethyl-2,6-dioxo-2,3-dihydro-1H-purin-7(6H)-yl)-N-(5-(2-methylthiazol-4-yl)pyridin-2-yl)propanamide]	> 5.30	
CCn1c(=O)c2c(ncn2CC(=O)Nc2ccc(-c3ccsc3)cc2)n(CC)c1=O [Compound 72, 2-(1,3-diethyl-2,6-dioxo-2,3-dihydro-1H-purin-7(6H)-yl)-N-(4-(thiophen-3-yl)phenyl)acetamide]	> 7.00	
Cn1c(=O)c2c(ncn2CC(=O)Nc2ccc(-c3nccs3)cn2)n(C)c1=O [Compound 41, 2-(1,3-dimethyl-2,6-dioxo-2,3-dihydro-1H-purin-7(6H)-yl)-N-(5-(thiazol-2-yl)pyridin-2-yl)acetamide]	> 7.00	
C[C@H]1CN(C(=O)c2ccccc2)CCN1c1ccc(NC(=O)Cn2cnc3c2c(=O)n(C)c(=O)n3C)cc1 [Compound 46, (S)—N-(4-(4-benzoyl-2-methylpiperazin-1-yl)phenyl)-2-(1,3-dimethyl-2,6-dioxo-2,3-dihydro-1H-purin-7(6H)-yl)acetamide]	> 6.00	
C[C@H](C(=O)Nc1ccc(-c2nccs2)cn1)n1cnc2c1c(=O)n(C)c(=O)n2C [Compound 83, (R)-2-(1,3-dimethyl-2,6-dioxo-1,2,3,6-tetrahydro-7H-purin-7-yl)-N-(5-(thiazol-2-yl)pyridin-2-yl)propanamide]	> 5.00	
CC(C(=O)Nc1ccc(-c2nccs2)cc1)n1cnc2c1c(=O)n(C)c(=O)n2C (stereo not shown) [Compound 81, 2-(1,3-dimethyl-2,6-dioxo-2,3-dihydro-1H-purin-7(6H)-yl)-N-(4-(thiazol-2-yl)phenyl)propanamide]	> 7.00	
